Consider two molecules from patent US9714247B2, “Multiple kinase pathway inhibitors” (Mannkind Corporation, priority 2012, dated 2017).

The test system of data set [1] is phosphorylation of SFKs in Ramos cells. In words: SFK phosphorylation (Tyr 416) by Western blotting. It counts as cell-based, human. To be noted: pretreated 2 hours. The procedure: Ramos cell lysates from stimulated and unstimulated cells were analyzed for the levels of phosphorylated SRC family members. As described in Example 82 (above), cells were pretreated for 2 hours with an amino naphthyridinones and then stimulated with anti-IgM antibody and H2O2, protein lysates were prepared, quantified and used for Western blotting. A commercially available antibody that detects Src phosphorylated at Tyr 416 (Cell Signalling) and may cross-react with other Src family members such as Lyn, Fyn, Lck, Yes and Hck when phosphorylated at equivalent sites was used for Western blot analysis. The molecular weights of SFK family members are quite similar (in the 55-60 kDa range) and different family members cannot be resolved by the conditions used for the Western blot. […] The procedure can be similarly adapted for flow cytometric analysis as with the PLC-γ2 assay in Example 82. Ramos cells were incubated with Compound 1 for 2 hrs in RPMI media with 5% FBS prior to stimulation stimulated with H2O2/anti-IgM/F(Ab) for 10 minutes. Cells were evaluated by FACS analysis using anti-pSRC antibody and FITC-conjugated goat anti-rabbit secondary antibody following overnight storage at 4° C. in BD perm/wash buffer.
Background: A western blot detects proteins with antibodies after separation by electrophoresis.

Data set [2] relates to Ramos. The data set is described as follows: Apoptosis by flow cytometry (Annexin V / 7AAD). It counts as cell-based, human. To be noted: Table 5, 6 hours.
For data set [3], the system named is PLCγ2 phosphorylation in Ramos cells. The data set is described as follows: PLCγ2 phosphorylation by Western blotting. It counts as cell-based, human. To be noted: anti-IgM/H2O2 stimulation, Tyr1217. The protocol:
Ramos cells were cultured in RPMI 1640 media with 10% FBS and were starved overnight (18 h) in 1% FBS containing media and on the next day pretreated with inhibitor for 2 h before stimulation. Cells were stimulated to induce BTK network dependent signal transduction pathways using mouse anti-human IgM (final concentration 10 ug/ml; Invitrogen) antibodies and 3.3 mM H2O2 mixture for 2 minutes followed by F(Ab) fragment that cross-linked the anti-IgM antibody (final concentration 10 ug/ml), and 3.3 mM H2O2 for 8 minutes. Cell lysates were prepared in lysis buffer containing protease and phosphatase inhibitors, quantified using the BCA protein assay kit (Pierce) and used for Western blotting. Antibodies specifically targeted to the molecules of interest, PLCγ2 phosphorylated at Tyr1217 and total PLCγ2, (Cell Signaling Technology) were used in a standard Western blotting procedure.
Phosphorylation of PLCγ2 at Tyr1217 along with Tyr753, Tyr759 and Tyr1197 is correlated with increased PLCγ2 activity. The readout for BTK network signaling was inhibition of phosphorylation of PLCγ2 induced by the anti-IgM treatment.

The test system of data set [4] is PARP cleavage in DoHH-2 cells. The data set is described as follows: PARP cleavage by Western blotting. It counts as cell-based, human. The following applies: DoHH-2 cells, 2, 6 and 24 hr, low micromolar concentrations. The procedure: Additionally, using an exemplary amino naphthyridinones, Compound 1, […] PARP cleavage has been observed. PARP is downstream of the caspase cascade; its cleavage is an indicator or caspase-dependent apoptosis. PARP cleavage was assessed by Western blotting exponentially growing cultures of DoHH-2 cells that had been cultured overnight (18 h) in 1% FBS containing RPMI1640 media. These cells were washed, counted and plated with and without Compound 1 for 2, 6, and 24 hr. Cells were centrifuged and cell pellets were lysed using RIPA buffer from CST. Protein lysates were quantified using the BCA protein assay kit from Pierce and used in a standard Western blotting procedure. Anti-PARP antibody was obtained from CST and used as per the manufacturer's protocol. […] Thus amino naphthyridinones can be used to induce apoptosis in tumor cells.

Data set [5] has as its system phosphorylation of SFKs in Ramos cells. In words: SFK phosphorylation (Tyr 416) by flow cytometry. It counts as cell-based, human. Summed up:
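Ramos cells pretreated with compound 2 hrs in RPMI with 5% FBS, then stimulated 10 minutes with H2O2/anti-IgM. Phospho-Tyr 416 SFK detected by flow cytometry with an antibody that may cross-react across Src family members, plus fluorescent secondary antibody.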
A general note: In flow cytometry, cells or beads pass a laser one at a time.

For data set [6], the system named is PLC-γ2 phosphorylation in DoHH-2. In words: PLCγ2 phosphorylation by flow cytometry. It counts as cell-based, human. To be noted: DoHH-2, increasing concentrations (data not shown). The procedure: PLCγ2 phosphorylation was also assessed by flow cytometry. Cells were similarly stimulated and following stimulation, Cytofix buffer (Becton Dickinson) was added, cells were centrifuged and the cell pellets incubated on ice with Phosflow perm buffer III (Becton Dickinson). These cell pellets were washed with Perm/Wash buffer (Becton Dickinson); resuspended and labeled for flow cytometry analysis in a staining mixture containing Perm/Wash buffer and PE-labeled anti-phosphoPCLγa2 (Tyr1217) antibody (Becton Dickinson). The samples were washed with Perm/Wash buffer and analyzed on a FACS Calibur flow cytometer using CellQuest Pro software. As mentioned for the Western blot experiments, phosphorylation of PLCγ2 at Tyr1217 along with Tyr753, Tyr759 and Tyr1197 is correlated with increased PLCγ2 activity. The readout for BTK network signaling was inhibition of phosphorylation of PLCγ2. Cells were gated to exclude dead or dying cells. Fluorescence signals from the antibody staining were plotted in logarithmic units and data was analyzed using Cellquest Pro software. […] An ED50 was calculated based on the geometric mean of fluorescence intensity observed for treatment for four different concentrations of the inhibitors (see Table 7 and FIG. 6). […] Thus treatment with amino naphthyridinones inhibits PLCγ2 phosphorylation consistent with inhibition of BTK and/or LYN activity.

The subject of data set [7] is PLCγ2 phosphorylation in Ramos cells. The data set is described as follows: PLCγ2 phosphorylation by flow cytometry. It counts as cell-based, human. In a few lines:
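Ramos cells starved 18 h in 1% FBS, pretreated with inhibitor 2 h, then stimulated with anti-IgM (10 ug/ml final) plus 3.3 mM H2O2 for 2 min, then cross-linking F(ab) (10 ug/ml) plus H2O2 for 8 min. Fixed, permeabilized cells stained with PE anti-phospho-PLCγ2 (Tyr1217 or Tyr759), dead cells gated out; ED50 from geometric mean fluorescence over four inhibitor concentrations.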

The subject of data set [8] is DoHH-2 tumor xenograft. It is filed as in vivo.
Data set [9] concerns the target T1, Src (Homo sapiens (Human), UniProt P12931). The data set is described as follows: biochemical.
In data set [10] the test system is PC3. The data set is described as follows: Apoptosis by flow cytometry (Annexin V / 7AAD). It is filed as cell-based. To be noted: Table 5, 6 hours.
Data set [11] concerns the target T1, Src. The following applies: read-out: Src IC50.

pEC50, pIC50: −log10 of the molar value. Where two headings read alike, the source gives them in different places.

T1 sequence (P12931 whole entry, looked up): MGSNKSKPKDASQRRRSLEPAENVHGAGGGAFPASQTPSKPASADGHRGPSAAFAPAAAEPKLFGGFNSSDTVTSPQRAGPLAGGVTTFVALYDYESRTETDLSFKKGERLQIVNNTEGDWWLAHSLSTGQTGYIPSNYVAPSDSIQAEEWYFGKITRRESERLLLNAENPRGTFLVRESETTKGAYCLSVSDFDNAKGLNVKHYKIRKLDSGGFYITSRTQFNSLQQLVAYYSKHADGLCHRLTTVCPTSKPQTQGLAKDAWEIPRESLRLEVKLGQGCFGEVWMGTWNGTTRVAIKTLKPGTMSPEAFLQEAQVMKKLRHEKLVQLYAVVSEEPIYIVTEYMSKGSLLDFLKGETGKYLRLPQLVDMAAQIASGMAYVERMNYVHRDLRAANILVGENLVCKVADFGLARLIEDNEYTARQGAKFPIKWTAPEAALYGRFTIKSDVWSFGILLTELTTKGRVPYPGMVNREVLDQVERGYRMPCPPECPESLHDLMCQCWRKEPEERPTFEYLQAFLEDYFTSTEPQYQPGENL

In the case of `CCN(CC)CCOc1ccc(Nc2cc3c(cn2)cc(-c2ccccc2)c(=O)n3CC)nc1` [Compound 1, 7-[5-(2-Diethylamino-ethoxy)-pyridin-2-ylamino]-1-ethyl-3-phenyl-1H-[1, 6]naphthyridin-2-one], the “Inhibition of phosphorylation of SFKs (Western blot)” value in [1] is “dose-dependent decrease of phosphorylation of SFKs”. Further, the “Percent Apoptosis Ramos” value is listed as 35.71% in data set [2] (1 uM), 38.94% in [2] (2 uM), 39.09% in [2] (5 uM) and 51.63% in [2] (10 uM). Moreover, the “Inhibition of PLCγ2 phosphorylation (Western blot)” value in [3] is on record as “dose dependent decrease in PLCγ2 phosphorylation”. Moreover, in [4], the PARP cleavage result is “induced the apoptotic pathway as shown by PARP cleavage”. The inhibition (usually the share of the control response that was lost under treatment) at 0.3 µM is 31% in data set [5] (Homo sapiens, 0.3 uM, flow cytometry, SFK phosphorylated at Tyr 416, read-out: pSRC % inhibition) and 63% in data set [7] (Homo sapiens, 0.3 uM, flow cytometry, anti-phospho PLCγ2 (Tyr759), read-out: pPLCγ % inhibition). For the same molecule, in data set [5] (incubated 2 hrs), the “Inhibition of SFK phosphorylation (flow cytometry)” value was “dose-dependent inhibition of SFK phosphorylation”. The “Inhibition of PLC-γ2 phosphorylation (flow cytometry)” value in data set [6] and in data set [7] (increasing concentrations) was “dose dependent decrease in PLC-γ2 phosphorylation” in each case. Besides, the pEC50 (in general, the EC50 on a negative log10 scale, so that one unit is a factor of ten) in data set [7] (Homo sapiens, flow cytometry, anti-phospho PLCγ2 (Tyr1217), four concentrations, read-out: Inhibition of phosphorylation of PLC-γ2 EC50) was 6.42. In addition, in data set [8] (62.5 mg/kg), the “Effect on tumor growth compared with 70 mg/kg PCI-32765” value is “more marked effect”. In data set [8] (62.5 mg/kg group, day 17), the Mortality is reported as 2 animals. Moreover, the “Estimated maximal tolerated dose” value in [8] (IP, SCID mice) was roughly 62.5 mg/kg/day. Further, in data set [8] (highest dose 62.5 mg/kg/day IP, day 15, 19 and 21), the Tumor growth inhibition entry is on record as “significantly inhibited tumor growth”. Also, in data set [9], the pIC50 – broadly, the IC50 on a negative log10 scale, so that one unit is a factor of ten – was 6.00 to 7.00. The “Percent Apoptosis PC3” value is 7.86% in [10] (1 uM), 6.5% in data set [10] (2 uM), 11.74% in [10] (5 uM) and 6.35% in data set [10] (10 uM).
As for `CCn1c(=O)c(-c2ccccc2)cc2cnc(Nc3ncc(CCN(C)C)s3)cc21` [Compound 2, 7-[5-(2-Dimethylamino-ethyl)-thiazol-2-ylamino]-1-ethyl-3-phenyl-1H-[1,6]naphthyridin-2-one], in data set [11], the pIC50 was less than 5.30.
